Where two headings read alike, the source gives them in different places.
How the values were obtained:
[1] = Toxicity test, albino rat/peroral; conditions: in vivo, po; albino rat; peroral; evaluation after 7 days
Procedure: Test animal: Albino rat (Rattus norvegicus)
To produce a suitable preparation of active compound, 3 parts by weight of active compound were mixed with 2.8 parts by weight of highly disperse silica and 4.2 parts by weight of talc. Suspensions, which contained, in 1 ml of liquid, the amount of active compound to be adminstered per 100 g of animal weight, were prepared from the above active-compound concentrate, with addition of a little powdered vegetable gum, by trituration with water. The dosage was measured out volumetrically after weighing the test animals. It was administered orally by means of a steel knob-ended probe. The results were in each case evaluated at the end of the above-mentioned interval of time, calculated from the administration of the active compound.
The LD50 values (dose of active compound which kills 50% of the treated animals) was determined from the mortality values of the dose which were varied in geometrical progression, in the usual manner.
The active compounds and LD50 values can be seen from Table 5 which follows.

[2] = test system: fly larvae (Lucilia cuprina); test: Test with parasitic fly larvae/Lucilia cuprina res.; type: in vivo; conditions: after 24 hours, resistant larvae, read-out: Degree of destruction in %; for mortality at 10 ppm: active compound concentration 10 ppm; for mortality at 30 ppm: active compound concentration 30 ppm; for mortality at 100 ppm: active compound concentration 100 ppm
Procedure: Test with parasitic fly larvae
35 parts by weight of ethylene polyglycol monomethyl ether
35 parts by weight of nonylphenol polyglycol ether
To produce a suitable preparation of active compound, 30 parts by weight of the active substance in question were mixed with the stated amount of solvent which contained the above-mentioned proportion of emulsifier and the concentrate thus obtained was diluted with water to the desired concentration.
About 20 fly larvae (Lucilia cuprina) were introduced into a test tube which contained approximately 2 ml of horse muscle. 0.5 ml of the preparation of active compound was applied to this horse meat. After 24 hours, the degree of destruction in % was determined. 100% means that all the larvae had been killed and 0% means that no larvae had been killed.

[3] = test system: vinegar flies (Drosophila melanogaster); test: Drosophila test; type: in vivo; conditions: 24 h, read-out: Degree of destruction in % after 1 day; for mortality at 0.01 %: active compound concentration 0.01 %
Procedure: (§1) Solvent: 3 parts by weight of acetone
(§2) Emulsifier: 1 part by weight of alkylaryl polyglycol ether
To produce a suitable preparation of active compound, 1 part by weight of the active compound was mixed with the stated amount of solvent containing the stated amount of emulsifier, and the concentrate was diluted with water to the desired concentration.
1 ml of the preparation of the active compound was applied with a pipette to a filter paper disc of 7 cm diameter. The wet disc was placed over the orifice of a glass vessel containing 50 vinegar flies (Drosophila melanogaster) and covered with a glass plate.
After the specified periods of time, the destruction was determined in %. 100% means that all the flies were killed, and 0% means that no flies were killed.
The active compounds, the concentrations of the active compounds, the evaluation times and the degree of destruction can be seen from the following Table 1: […]

[4] = test system: two-spotted spider mite (Tetranychus urticae); test: Tetranychus test (resistant); type: in vivo; conditions: 48 h, after 2 days, resistant mites, read-out: Degree of destruction in % after 2 days; for mortality at 0.01 %: active compound concentration 0.01 %; for mortality at 0.1 %: active compound concentration 0.1 %
Procedure: Tetranychus test (resistant)
as §1, §2
(§3) To produce a suitable preparation of active compound, 1 part by weight of the active compound was mixed with the stated amount of solvent containing the stated amount of emulsifier and the concentrate was diluted with water to the desired concentration.
These bean plants were heavily infested with the two-spotted spider mite (Tetranychus urticae) in all stages of development.
After the specified periods of time, the effectiveness of the preparation of active compound was determined by counting the dead mites. The degree of destruction thus obtained was expressed as a percentage: 100% means that all the spider mites were killed whereas 0% means that none of the spider mites were killed.
The active compounds, the concentrations of the active compounds, the evaluation times and the results can be seen from the following Table 3: […]

[5] = test system: caterpillars of the diamond-back moth (Plutella maculipennis); test: Plutella test; type: in vivo; conditions: 72 h, read-out: Degree of destruction in % after 3 days; for mortality at 0.001 %: active compound concentration 0.001 %; for mortality at 0.01 %: active compound concentration 0.01 %
Procedure: as §1, §2, §3
Cabbage leaves (Brassica oleracea) were sprayed with the preparation of the active compound until dew moist and were then infested with caterpillars of the diamond-back moth (Plutella maculipennis).
After the specified periods of time, the degree of destruction was determined as a percentage: 100% means that all the caterpillars were killed, whereas 0% means that none of the caterpillars were killed.
The active compounds, the concentrations of the active compounds, the evaluation times and the results can be seen from the following Table 2.

warm-blooded animals = conditions: prior-art compounds; cited from earlier work
insects and acarids = conditions: prior-art compounds; cited from earlier work
[6] = active compound concentration 0.1 %, after 1 day
[7] = active compound concentration 0.1 %, after 3 days

CCCSP(=S)(OCC)Oc1ccc(=O)[nH]n1 (stereo not drawn) [Compound 1, O-ethyl-S-n-propyl-O-[pyridaz-(6)-on-(3)-yl]-thionothiolphosphoric acid ester]
LD50 at 168 h [1]: 100 to 250 mg/kg

CCCSP(=S)(OCC)Oc1ccc(=O)n(CCC#N)n1 (stereo not drawn) [Compound 2, O-ethyl-S-n-propyl-O-[1-β-cyanoethyl-pyridaz-(6)-on-(3)-yl]-thionothiolphosphoric acid ester]
mortality at 10 ppm [2]: 100%
mortality at 30 ppm [2]: 100%
mortality at 100 ppm [2]: 100%
LD50 at 168 h [1]: 250 to 500 mg/kg

CCCSP(=S)(OCC)Oc1ccc(=O)n(C)n1 (stereo not drawn) [Compound 3]
mortality at 0.01 % ([3]; after 1 day): 100%
mortality at 0.1 % [3, 6]: 100%
mortality at 0.01 % [4]: 70%
mortality at 0.1 % [4]: 100%
mortality at 10 ppm [2]: 100%
mortality at 30 ppm [2]: 100%
mortality at 100 ppm [2]: 100%
LD50 at 168 h [1]: 100 to 250 mg/kg

C=CCn1nc(OP(=S)(OCC)SCCC)ccc1=O (stereo not drawn) [Compound 6]
mortality at 0.01 % ([3]; after 1 day): 100%
mortality at 0.1 % [3, 6]: 100%
mortality at 0.01 % [4]: 55%
mortality at 0.1 % [4]: 100%
LD50 at 168 h [1]: ~500 mg/kg

C#CCn1nc(OP(=S)(OCC)SCCC)ccc1=O (stereo not drawn) [Compound 7]
mortality at 0.01 % ([3]; after 1 day): 100%
mortality at 0.1 % [3, 6]: 100%
mortality at 0.01 % [4]: 45%
mortality at 0.1 % [4]: 100%
LD50 at 168 h [1]: ~250 mg/kg

CCCSP(=S)(OCC)Oc1ccc(=O)n(CCSCC)n1 (stereo not drawn) [Compound 8]
mortality at 0.01 % ([3]; after 1 day): 100%
mortality at 0.1 % [3, 6]: 100%
mortality at 0.01 % [4]: 80%
mortality at 0.1 % [4]: 100%
LD50 at 168 h [1]: 250 to 500 mg/kg

CCCSP(=S)(OCC)Oc1ccc(=O)n(CC(=O)OCC)n1 (stereo not drawn) [Compound 9]
LD50 at 168 h [1]: ~500 mg/kg

CCCSP(=S)(OCC)Oc1ccc(=O)n(CCC(C)=O)n1 (stereo not drawn) [Compound 10]
LD50 at 168 h [1]: 250 to 500 mg/kg

CCCSP(=S)(OCC)Oc1ccc(=O)n(CCC(=O)OC)n1 (stereo not drawn) [Compound 11]
LD50 at 168 h [1]: ~250 mg/kg

CCCSP(=S)(OCC)Oc1ccc(=O)n(-c2ccccc2)n1 (stereo not drawn) [Compound 13]
mortality at 0.01 % ([3]; after 1 day): 100%
mortality at 0.1 % [3, 6]: 100%
mortality at 0.001 % ([5]; after 3 days): 95%
mortality at 0.01 % ([5]; after 3 days): 100%
mortality at 0.1 % [5, 7]: 100%
mortality at 0.01 % [4]: 100%
mortality at 0.1 % [4]: 100%
LD50 at 168 h [1]: 250 to 500 mg/kg

CCCSP(=S)(OCC)Oc1ccc(=O)n(-c2cccc([N+](=O)[O-])c2)n1 (stereo not drawn) [Compound 14]
mortality at 0.001 % ([5]; after 3 days): 95%
mortality at 0.01 % ([5]; after 3 days): 100%
mortality at 0.1 % [5, 7]: 100%
LD50 at 168 h [1]: > 1000 mg/kg

CCCSP(=S)(OCC)Oc1ccc(=O)n(-c2ccc(C)cc2)n1 (stereo not drawn) [Compound 15]
mortality at 3 ppm ([2]; active compound concentration 3 ppm): > 50%
mortality at 10 ppm [2]: 100%
mortality at 30 ppm [2]: 100%
mortality at 100 ppm [2]: 100%
LD50 at 168 h [1]: ~500 mg/kg

CCCSP(=S)(OCC)Oc1ccc(=O)n(-c2ccc(Cl)cc2)n1 (stereo not drawn) [Compound 16]
LD50 at 168 h [1]: > 1000 mg/kg

CCCSP(=S)(OCC)Oc1ccc(=O)n(-c2cccc(Cl)c2)n1 (stereo not drawn) [Compound 17]
LD50 at 168 h [1]: > 1000 mg/kg

CCCSP(=S)(OCC)Oc1ccc(=O)n(C2CCS(=O)(=O)C2)n1 (stereo not drawn) [Compound 18]
LD50 at 168 h [1]: ~500 mg/kg

CCCSP(=S)(OCC)Oc1nn(CN2CCCC2)c(=O)c2ccccc12 (stereo not drawn) [Compound 19]
mortality at 0.01 % ([3]; after 1 day): 100%
mortality at 0.1 % [3, 6]: 100%
LD50 at 168 h [1]: 100 to 250 mg/kg

CCCSP(=S)(OCC)Oc1nn(CN2CCCCC2)c(=O)c2ccccc12 (stereo not drawn) [Compound 20]
mortality at 0.01 % [4]: 80%
mortality at 0.1 % [4]: 100%
LD50 at 168 h [1]: 250 to 500 mg/kg

CCCSP(=S)(OCC)Oc1n[nH]c(=O)c2ccccc12 (stereo not drawn) [Compound 21]
LD50 at 168 h [1]: ~500 mg/kg

CCOP(=S)(OCC)Oc1n[nH]c(=O)c2ccccc12 [Compound A, O,O-diethyl-O-[phthalaz-(8)-on-(3)-yl]-thionophosphoric acid ester]
mortality at 0.1 % [5, 7]: 0%
mortality at 0.1 % [4]: 0%
LD50 at 168 h [1]: ~25 mg/kg
toxicity to warm-blooded animals (warm-blooded animals): high toxicity to warm-blooded animals
insecticidal and acaricidal properties (insects and acarids): good insecticidal and acaricidal properties

CCOP(=S)(OCC)Oc1ccc(=O)[nH]n1 [Compound B, O,O-diethyl-O-[pyridaz-(6)-on-(3)-yl]-thionophosphoric acid ester]
mortality at 0.001 % ([5]; after 3 days): 0%
mortality at 0.01 % ([5]; after 3 days): 80%
mortality at 0.1 % [5, 7]: 100%
mortality at 0.1 % [4]: 20%
mortality at 30 ppm [2]: < 50%
mortality at 300 ppm ([2]; active compound concentration 300 ppm): 100%
LD50 at 168 h [1]: 2.5 to 5 mg/kg
toxicity to warm-blooded animals (warm-blooded animals): high toxicity to warm-blooded animals
insecticidal and acaricidal properties (insects and acarids): good insecticidal and acaricidal properties

CCOP(=S)(OCC)Oc1ccc(=O)n(C)n1 [Compound C, O,O-diethyl-O-[1-methyl-pyridaz-(6)-on-(3)-yl]-thionophosphoric acid ester]
LD50 at 168 h [1]: 5 to 10 mg/kg
toxicity to warm-blooded animals (warm-blooded animals): high toxicity to warm-blooded animals
insecticidal and acaricidal properties (insects and acarids): good insecticidal and acaricidal properties

CCOP(=S)(OCC)Oc1ccc(=O)n(CCC#N)n1 [Compound D, O,O-diethyl-O-[1-β-cyanoethyl-pyridaz-(6)-on-(3)-yl]-thionophosphoric acid ester]
LD50 at 168 h [1]: 10 to 25 mg/kg
toxicity to warm-blooded animals (warm-blooded animals): high toxicity to warm-blooded animals
insecticidal and acaricidal properties (insects and acarids): good insecticidal and acaricidal properties

CCOC(=O)Cn1nc(OP(=S)(OCC)OCC)ccc1=O [Compound E, O,O-diethyl-O-[1-ethoxycarbonylmethyl-pyridaz-(6)-on-(3)-yl]-thionophosphoric acid ester, reference compound]
mortality at 10 ppm [2]: > 50%
mortality at 100 ppm [2]: 100%
toxicity to warm-blooded animals (warm-blooded animals): high toxicity to warm-blooded animals
insecticidal and acaricidal properties (insects and acarids): good insecticidal and acaricidal properties

CCOP(=S)(OCC)Oc1ccc(=O)n(-c2ccc(C)cc2)n1 [Compound F, O,O-diethyl-[1-p-methylphenyl-pyridaz-(6)-on-(3)-yl]-thionophosphoric acid ester, reference compound]
mortality at 0.01 % [4]: 0%
mortality at 0.1 % [4]: 40%
LD50 at 168 h [1]: 50 to 100 mg/kg
toxicity to warm-blooded animals (warm-blooded animals): high toxicity to warm-blooded animals
insecticidal and acaricidal properties (insects and acarids): good insecticidal and acaricidal properties

CCOP(=S)(OCC)Oc1ccc(=O)n(CCC(C)=O)n1 [G]
mortality at 0.001 % ([5]; after 3 days): 0%
mortality at 0.01 % ([5]; after 3 days): 80%
mortality at 0.1 % [5]: 100%
LD50 at 168 h [1]: 10 to 25 mg/kg

CCOP(=S)(OCC)Oc1n[nH]c(=O)c2ccccc12 [known, reference compound]
mortality at 0.01 % ([3]; after 1 day): 0%
mortality at 0.1 % [3]: 100%

— patent US4013657A, “O-ethyl-S-n-propyl-O-[pyridaz-(6)-on-(3)-yl]-thionothiolphosphoric acid esters” (priority 1973, dated 1977)
